According to PubChem BioAssay AID2008 (University of Pittsburgh Molecular Library Screening Center, 2009):
Calls of active or inactive are those of the source. No rule for the calls is given here.

Tested on: Leishmania major promastigote growth inhibition
Experiment: antileishmanial activity against L. major promastigotes – EC50, dose response (AID 2008)

Row | SMILES | EC50
1 | C[C@@]1(CO)[C@H](O)CC[C@@]2(C)[C@H]1CC[C@H]1C[C@@H]3C[C@@]12CC[C@]3(O)CO | 121 nM
2 | CCCc1n[nH]c2c1/C(=N/O)CC(c1ccccc1)C2 (stereo not drawn) | 1500 nM
3 | COc1ccc(S(=O)(=O)Nc2ccc(O)c3ccccc23)cc1 | 268 nM
4 | COc1ccc(NC(=O)/C(Cl)=C(/Cl)S(=O)Cc2ccccc2Cl)cn1 (stereo not drawn) | 241 nM
5 | CCN(CC)CCOC(c1ccccc1)c1ccc(C)cc1 (stereo not drawn) | 1100 nM
6 | Cc1nc2c(=O)n(C)c(=O)nc-2n(C)n1 | 201 nM
7 | COC(=O)c1ccc2c(c1)C(C)(C)C(/C=C/c1ccc(OC)c(OC)c1OC)=[N+]2C | 2.45 nM
8 | CNc1ccccc1C(C)(C)c1cc(-c2cccc(Br)c2)no1 | 2780 nM
9 | COc1ccc(-[n+]2c(C)cc(/C=C3\Sc4ccccc4N3C)cc2C)cc1 | < 10 nM
10 | c1ccc2c(c1)OC(CCCN1CCCCC1)c1ccccc1S2 (stereo not drawn) | 134 nM
11 | Cc1ccccc1NC1=C/C(=N\S(=O)(=O)c2cccs2)c2ccccc2C1=O | 208 nM
12 | NC(C(=O)O)C1CC(Cl)=NO1 (stereo not drawn) | 177 nM
13 | CCC(C)(c1nnnn1-c1c(C)cccc1C)N(N=O)c1ccccc1Cl (stereo not drawn) | 324 nM
14 | Cn1cc(CN2CCC(CO)CC2)c(-c2ccc(Oc3ccccc3)cc2)n1 | 164 nM
15 | O=[N+]([O-])c1ccc(NNC(=S)Nc2ccc(F)cc2)cc1 | 449 nM
16 | O=c1c(Cl)nc2cc(Cl)ccc2n1CCNc1ncc(C(F)(F)F)cc1Cl | 512 nM
17 | Cc1[nH]c2c(Cl)cccc2c(=O)c1CN1CCCC1 | 390 nM
18 | O=C(Cn1cnc([N+](=O)[O-])c1)Nc1cc(Oc2ccc(Cl)cc2Cl)cc([N+](=O)[O-])c1 | 1510 nM
19 | CCOC(=O)N=Nc1c2ccccc2c2nc3no[nH]c3nc12 | 784 nM
20 | CCOC(=O)c1c2c(n(C)c1C)C(=O)C(=O)c1ccc(Br)cc1-2 | 85.7 nM
21 | N#Cc1cc(Oc2ccc3ccccc3c2)c(-n2nnc3ccccc32)cc1C#N | > 5000 nM (inactive)
22 | CCN(CC)c1ccc(NC(=O)CN2CCN(S(=O)(=O)c3cc(Cl)ccc3OC)CC2)cc1 | 3640 nM
23 | Cc1cc(C)c2c(c1)-c1cc(C)nn1C(c1ccc3c(c1)OCO3)N2 (stereo not drawn) | 1320 nM
24 | CC1(C)C(=O)C=C[C@]2(C)[C@H]3CC[C@@]4(C)[C@H](c5ccoc5)OC(=O)[C@H]5O[C@]54[C@]3(C)[C@H](O)C[C@@H]12 | 982 nM

Row | SMILES | EC50
25 | CCCCS(=O)(=O)/C=C\C=C/S(=O)(=O)CCCC | 1520 nM
26 | O=[N+]([O-])c1ccc(-c2nc(-c3cccs3)c(-c3cccs3)[nH]2)cc1 | 1970 nM
27 | c1cnc2c(c1)ccc1cccnc12 | > 5000 nM (inactive)
28 | O=C(NCC(c1cccnc1)N1CCN(c2ccc(F)cc2)CC1)Oc1ccccc1 (stereo not drawn) | 111 nM
29 | Cn1c(=O)c2nc(-c3ccccc3)oc2c2ccccc21 | 1870 nM
30 | O=C(COc1ccccc1F)NC1CCN(Cc2ccccc2)CC1 | 140 nM
31 | COCCCNCCCCOc1ccc(Br)cc1Cl | 1.73 nM
32 | CCOCCN1CCN(c2nnc3n2-c2ccc(Cl)cc2C(c2ccccc2Cl)=NC3)CC1 | 1170 nM
33 | CC12CCC(C(=O)N(CCCN3CCN(Cc4ccccc4)CC3)C1=O)C2(C)C (stereo not drawn) | 565 nM
34 | N=C(N)c1ccc(OCCCCCOc2ccc(C(=N)N)cc2)cc1 | 45.1 nM
35 | c1ccc(CNc2nc(-c3cccs3)nc3ccccc23)cc1 | 2140 nM
36 | COc1ccccc1-n1cnc2c(c1=O)c1nc3ccccc3nc1n2-c1ccc(C)c(C)c1 | 81.8 nM
37 | Clc1ccc2[nH]cc(-c3nnnn3-c3ccc4ccccc4c3)c2c1 | 1540 nM
38 | Cc1c(Cl)sn(-c2ccc(Cl)cc2)c1=O | 545 nM
39 | C=CCn1cccc(/C=C/C(=O)c2ccc(C(C)(C)C)cc2)c1=S | 1790 nM
40 | Cc1cccc(-c2cc3c(N=O)c4ccccc4c-3n[nH]2)c1 | 1540 nM
41 | CCN(CC)CCN(C)C1CCC(c2ccccc2)CC1 (stereo not drawn) | 823 nM
42 | CCCCCCCCC[n+]1cccc2c3ccccc3ccc21 | 2.45 nM
43 | CCCCCCCCCCCCCCCCn1cc[n+](C)c1 | 35 nM
44 | O=[N+]([O-])c1cc([N+](=O)[O-])c2n[nH]c(-c3ccccc3)c2c1 | 402 nM
45 | CC(C)(C)c1ccc(-c2ncccc2O)cc1 | 299 nM
46 | CCCc1nc2c(=O)n(C)c(=O)nc-2n(C)n1 | 214 nM
47 | COc1ccc(Cn2c(-c3ccc(OC)cc3)nc3ccccc32)cc1 | 1110 nM
48 | CC(C)CCN(C)C1CCN(S(=O)(=O)c2cccc(C(F)(F)F)c2)CC1 | 9.17 nM

Row | SMILES | EC50
49 | Cc1nn(-c2ccccn2)c2c1C(=O)C(Br)CC2 (stereo not drawn) | 967 nM
50 | NC(=O)c1cn(C2OC(CO)C(O)C2O)c2ncnc(N)c12 (stereo not drawn) | 164 nM
51 | Cc1ccccc1-n1ncc2c([N+](=O)[O-])cc([N+](=O)[O-])cc21 | 60.9 nM
52 | O=C(/C=C/c1ccccc1)CC(O)(c1ccccc1)C(F)(F)F (stereo not drawn) | 1240 nM
53 | CCCOC(=O)CSC1=C(C#N)C(c2ccccc2Cl)CC(=O)N1 (stereo not drawn) | 122 nM
54 | N=c1c2c(n(Cc3ccccc3)c3c1CCC3)CCC2 | 83.4 nM
55 | NCC12CC3CC(C1)CC(c1ccc(Cl)cc1)(C3)C2 | 354 nM
56 | C=CCc1ccc(OCCCCCN2CCOCC2)c(OC)c1 | 970 nM
57 | CC(=O)O[C@@H]1C[C@H]2C(C)(C)C(=O)C=C[C@]2(C)[C@H]2CC[C@@]3(C)[C@H](c4ccoc4)OC(=O)[C@H]4O[C@]43[C@@]21C | 731 nM
58 | O=C(O)CCC(=O)Nc1ccc(N2CCCCCC2)cc1 | 1740 nM
59 | N#CC(c1cccc(Cl)c1)c1ccc2c(C(F)(F)F)cc(C(F)(F)F)nc2n1 (stereo not drawn) | 1180 nM
60 | Fc1cccc(-c2nnn3c2nc(Cl)c2ccccc23)c1 | 490 nM
61 | Cc1ccc(-c2cc3cccc[n+]3cc2-c2ccc(C)cc2)cc1 | 228 nM
62 | CC(C)(C)c1ccc(-n2nc(C#N)c(Cl)cc2=O)cc1 | 759 nM
63 | C[n+]1c(-c2ccccc2)cc(CCCCc2cc(-c3ccccc3)[n+](C)c(-c3ccccc3)c2)cc1-c1ccccc1 | 702 nM
64 | COc1cc(-c2c(C#N)c(N)nc(SCc3ccncc3)c2C#N)cc(OC)c1OC | 1020 nM
65 | Cc1cccc(OCCn2c(NC(=O)c3ccco3)nc3ccccc32)c1 | 1870 nM
66 | CCC(/C=C1\Sc2ccc(OC)cc2N1CCO)=C\c1sc2ccc(OC)cc2[n+]1CCO | 487 nM
67 | COC(=O)c1ccc(COc2ccc(C3C4=C(CCCC4=O)Nc4onc(C)c43)cc2)cc1 (stereo not drawn) | 1540 nM
68 | Cc1nc([N+](=O)[O-])nn1C12CC3CC(CC(Cl)(C3)C1)C2 | 856 nM
69 | CN(C)C(=S)SSC(=S)N(C)C | 97.1 nM
70 | Cc1cc(/C=C2\Sc3ccccc3N2C)cc(C)[n+]1CC1CCCO1 (stereo not drawn) | 1 nM
71 | CCOC(=O)c1nnn(-c2nonc2-n2cccc2)c1CCl | 1860 nM
72 | CCn1nc(/C=C/c2ccccc2)nc2c(=O)n(C)c(=O)nc1-2 | > 5000 nM (inactive)

Row | SMILES | EC50
73 | c1ccc(C2CCC(N3CCC(N4CCCCC4)CC3)CC2)cc1 (stereo not drawn) | 2530 nM
74 | O=C(c1cccnc1)N(c1cc2sc(=O)oc2c2ccccc12)S(=O)(=O)c1ccccc1 | 191 nM
75 | CCCCCCCCCCCCCCCC[n+]1cccc(C(=O)N(CC)CC)c1 | 625 nM
76 | CCOC(=O)C(=Cc1cc(=O)c(OC)co1)C(=O)OCC | 165 nM
77 | CN(C)c1nc(-c2ccccn2)nnc1-c1ccccc1 | 1460 nM
78 | COC(=O)c1cc2ccsc2n1Cc1nc(-c2ccc(OC)cc2)oc1C | 104 nM
79 | CN(CCN1CCc2ccccc2C1)Cc1nc(Cc2ccccc2F)no1 | 1400 nM
80 | N#CC(c1ccc(Cl)cc1)c1ccc2c(C(F)(F)F)cc(C(F)(F)F)nc2n1 (stereo not drawn) | 564 nM
81 | CN(C)CCOc1ccccc1Cc1ccccc1 | 498 nM
82 | COc1cccc2c(=O)c(C/C=C(/C)Cl)c(C)[nH]c12 | 107 nM
83 | O=C1C(=O)c2c(C(=O)c3ccccc3)coc2-c2ccccc21 | 1250 nM
84 | Cc1nnc(Nc2ccccn2)c2ccccc12 | 722 nM
85 | O=C(c1ccc(-c2ccccc2)c(F)c1)C1CCCN(CCO)C1 (stereo not drawn) | 510 nM
86 | Cc1ccc(S(=O)(=O)c2ccc(Oc3cccc(C)c3)cc2)cc1 | 178 nM
87 | Nc1nsc2ccccc12 | 391 nM
88 | COc1cc(NC(C)CCCN)c2ncccc2c1Oc1ccccc1 (stereo not drawn) | < 10 nM
89 | Cc1ccc(NC(=O)N2CCCN(Cc3ccc(F)cc3)C2)cc1C | 2940 nM
90 | COc1ccc2cc3[n+](cc2c1OC)CCc1cc2c(cc1-3)OCO2 | 375 nM
91 | CN(C)c1cc(N/N=C/c2ccc(Cl)cc2)nc(N(C)C)n1 | 502 nM
92 | O=C1c2ccccc2C(=O)C12Cc1ccccc1N1CCN(c3ccccc3)CC12 (stereo not drawn) | 1910 nM
93 | CC1(C)Cc2ccccc2-c2nnc(-c3ccc4ccccc4n3)n21 | 1020 nM
94 | Cc1ccc2c(c1)-c1cc(C)nn1C(c1ccc3c(c1)OCO3)N2 (stereo not drawn) | 1590 nM
95 | CC[n+]1c(/C=C/N(C)c2ccccc2)sc2ccc(Cl)cc21 | 172 nM
96 | O=C(NC1CCCC1)C(c1ccc(F)cc1)N(Cc1ccc(Cl)cc1)C(=O)CCl (stereo not drawn) | 1760 nM

Row | SMILES | EC50
97 | Cc1ccc2nc3cc([N+](=O)[O-])cc([N+](=O)[O-])c3cc2c1 | 288 nM
98 | COC(=O)C1CN(C#N)N(c2ccc(Cl)cc2)C12c1ccccc1-c1ccccc12 (stereo not drawn) | 72.9 nM
99 | CSc1ccc(CNC2CN3CCC2CC3)cc1 (stereo not drawn) | 1140 nM
100 | Nc1cccc2nc3ccccc3cc12 | 635 nM
101 | COC(=O)c1ccc(-c2ccc(CNCC(O)c3ccccc3)o2)cc1 (stereo not drawn) | 102 nM
102 | O=C1C2ON(c3ccc(Br)cc3)C(c3cccnc3)C2C(=O)N1C1CCCCC1 (stereo not drawn) | 513 nM
103 | CC1=C(C(=O)Nc2cc(-c3cccc(F)c3)[nH]n2)C2(CCCCC2)OC1=O | 379 nM
104 | CCc1ccc(NSc2ccccc2[N+](=O)[O-])cc1 | 748 nM
105 | CC(C)(C)C1CCC2(CC1)Nc1cccc3cccc(c13)N2 | 1840 nM
106 | COc1ccc2c3c(cccc13)NN=C2C | 255 nM
107 | O=Nc1c2cc(-c3ccccc3)[nH]nc-2c2ccccc12 | 2210 nM
108 | Cc1nn(-c2nc3ccccc3[nH]2)c(N)c1-c1ccc(Cl)cc1 | 1540 nM
109 | CCCCCCCCCCCCCCCC[n+]1ccc(/C=N/O)cc1 | 9.38 nM
110 | Cc1ccc(-c2cc(-c3ccc(C)cc3)[n+](C)o2)cc1 | 183 nM
111 | Cc1cc(C(=O)CCl)c(C)n1Cc1ccco1 | 783 nM
112 | O=C(c1ccccc1)c1c2c(cc3sc4ccccc4[n+]13)-c1cccc3cccc-2c13 | 504 nM
113 | Cc1ccc2nc(Cl)c3nnnn3c2c1 | 765 nM
114 | Cc1ccc(OCCCCn2ccnc2)c(Cl)c1 | 131 nM
115 | CN(C)CCCN=c1cc(-c2ccccc2)oc2ccc(Cl)cc12 | 1640 nM
116 | COc1ccc(C(=O)C(CN2CCOCC2)c2ccccc2)cc1F (stereo not drawn) | 2040 nM
117 | CC(C)(C)c1ccc(C(=O)C2CCCN(C3CCC3)C2)cc1 (stereo not drawn) | 10.7 nM
118 | COC(=O)CNc1nc(-c2ccccc2F)nc2ccccc12 | 742 nM
